Data set [1] is described as follows: Largest Soluble Hydrocarbon (LSH) test. Format: physicochemical. As to conditions: compound:hydrocarbon about 1:1 to 1:2 by weight. As to the method: Largest Soluble Hydrocarbon (LSH): The LSH of each hydrofluoroolefin compound was determined by mixing the compound with hydrocarbons of varying molecular weight (CnH2n+2, where n=9 to 24) in a hydrofluoroolefin:hydrocarbon ratio of about 1:1 to 1:2 by weight at room temperature (25° C.) and at 50° C. […] A larger value of n is interpreted herein to indicate a greater ability of the hydrofluoroolefin to clean hydrocarbons.
The results presented in Table 2 indicate that the hydrofluoroolefins of the present invention are highly suitable fluids for cleaning applications.

Data set [2] can be described thus: Atmospheric lifetime from rate of reaction with hydroxyl radicals. It counts as physicochemical. As to conditions: gas phase, relative to reference compounds such as chloromethane and ethane, FTIR. As to the method: Atmospheric lifetime: The atmospheric lifetime of Example 1 was determined from the rate of reaction with hydroxyl radicals. The pseudo-first order rate for the reaction of the gaseous hydrobromofluoroolefin with hydroxyl radical was measured in a series of experiments relative to reference compounds such as chloromethane and ethane. The measurements were performed in a 5.7 L, heated FTIR gas cell equipped with a polished semiconductor-grade quartz window. An Oriel Instruments UV Lamp, Model 66921 equipped with a 480 W mercury-xenon bulb was used to generate hydroxyl radicals by photolyzing ozone in the presence of water vapor. The concentrations of the hydrobromofluoroolefin and the reference compound were measured as a function of reaction time using an I-Series FTIR from Midac Corporation, Westfield, Mass., US. The atmospheric lifetime was calculated from the reaction rates for the hydrobromofluoroolefin relative to the reference compounds and the reported lifetime of the reference compounds as shown below:
[formula] where τx is the atmospheric lifetime of hydrobromofluoroolefin, τr is the atmospheric lifetime of the reference compound, and kx and kr are the rate constants for the reaction of hydroxyl radical with hydrobromofluoroolefin and the reference compound, respectively. Sample Preparation

[3] abbreviates: 25° C., longest hydrocarbon compatible without haze.
Setting [4] is: 50° C., largest hydrocarbon used C-23.

`COC(=C(Cl)C(F)(F)F)C(F)(F)F` [Example 1, 2-Chloro-1,1,1,4,4,4-hexafluoro-3-methoxybut-2-ene]: the results for the “LSH (n in CnH2n+2)” value in data set [1] (setting [3]) and in data set [1] (setting [4]) were 19 and greater than 23, respectively. The molecule also registered an atmospheric lifetime in data set [2] of 0.04 years.
`COC1=C(Cl)C(F)(F)C(F)(F)C1(F)F` [Example 4, 1-Chloro-3,3,4,4,5,5-hexafluoro-2-methoxycyclopent-1-ene]: the figures for the “LSH (n in CnH2n+2)” value in data set [1] (setting [3]) and in data set [1] (setting [4]) were 19 and greater than 23, respectively.

These data come from patent US11773352B2, “Hydrochlorofluoroolefins and methods of using same” (3M INNOVATIVE PROPERTIES COMPANY, priority 2018, dated 2023).
